From US12644001B2, “Fluorenyl cyanine dyes” (Biotium, Inc., priority 2020, dated 2026)

Test: Fluorescence properties (excitation and emission wavelength) of exemplary compounds
Type: physicochemical
Settings: for λ^em (nm): emission wavelength; for λ^ex (nm): excitation wavelength
Source text: Exemplary compounds of the invention along with their known fluorescence properties are shown in Table 2 where λ^ex denotes excitation wavelength and λ^em denotes emission wavelength: […]

Row | SMILES | λ^em (nm) | λ^ex (nm)
1 | CC1(CCCCCC(=O)O)C(/C=C/C=C2\N(CCCS(=O)(=O)O)c3ccc(S(=O)(=O)[O-])cc3C2(C)C)=[N+](CCCS(=O)(=O)O)c2cc3c(cc21)-c1ccc(S(=O)(=O)O)cc1C3(C)C (stereo not drawn) [Compound E2] | 602 nm | 572 nm
2 | CCCOCCOCCOCCOCCOCCOCCOCCOCCOCCOCCONC(=O)CCC1(CCC(=O)NCCOCCOCCOCCOCCOCCOCCOCCOCCOCCOCCOC)c2cc(S(=O)(=O)O)ccc2-c2cc3c(cc21)N(CCCCCC(=O)ON1C(=O)CCC1=O)/C(=C/C=C/C=C/C1=[N+](CCCCCC(=O)ON2C(=O)CCC2=O)c2cc4c(cc2C1(C)C)-c1ccc(S(=O)(=O)[O-])cc1C4(CCC(=O)NCCOCCOCCOCCOCCOCCOCCOCCOCCOCCOCCOC)CCC(=O)NOCCOCCOCCOCCOCCOCCOCCOCCOCCOCCOCCC)C3(C)C (stereo not drawn) [Compound E14] | 721 nm | 696 nm
3 | CC1(C)c2cc(S(=O)(=O)O)ccc2-c2cc3c(cc21)N(CCCCCC(=O)ON1C(=O)CCC1=O)\C(=C/C=C/C=C/C=C/C1=[N+](CCCS(=O)(=O)O)c2cc4c(cc2C12CCCCC2)-c1ccc(S(=O)(=O)[O-])cc1C4(C)C)C31CCCCC1 [Compound E6] | 820 nm | 795 nm
4 | CC1(C)C(/C=C/C=C/C=C/C=C2\N(CCCCCC(=O)ON3C(=O)CCC3=O)c3cc4c(cc3C2(C)C)-c2ccc(S(=O)(=O)O)cc2C42CCCCC2)=[N+](CCCS(=O)(=O)O)c2cc3c(cc21)-c1ccc(S(=O)(=O)[O-])cc1C31CCCCC1 [Compound E7] | 817 nm | 793 nm
5 | CCCOCCOCCOCCOCCOCCONC(=O)CCC1(CCC(=O)NCCOCCOCCOCCOCCOCCOC)c2cc3c(cc2-c2c1cc(S(=O)(=O)O)cc2S(=O)(=O)[O-])C(C)(C)C(/C=C/C=C/C=C1/N(CCCCCC(=O)ON2C(=O)CCC2=O)c2cc4c(cc2C1(C)C)-c1c(cc(S(=O)(=O)O)cc1S(=O)(=O)O)C4(CCC(=O)NCCOCCOCCOCCOCCOCCOC)CCC(=O)NOCCOCCOCCOCCOCCOCCC)=[N+]3CCCCCC(=O)ON1C(=O)CCC1=O (stereo not drawn) [Compound E15] | 721 nm | 696 nm
6 | CC1(C)C2=CC3=[N+](CCN2c2ccccc21)c1cc2c(cc1C3(C)CCCCCC(=O)O)-c1ccccc1C2(C)C.[I-] (stereo not drawn) [Compound E1] | 518 nm | 445 nm

Further lines, results first:

Row | λ^em (nm) | λ^ex (nm) | SMILES
7 | 832 nm | 823 nm | CCCOCCOCCOCCOCCOCCONC(=O)CCC1(CCC(=O)NOCCOCCOCCOCCOCCOCCC)c2cc3c(cc2-c2c1cc(S(=O)(=O)O)cc2S(=O)(=O)[O-])C(C)(C)C(/C=C/C1=C(Oc2ccc(S(=O)(=O)O)cc2)C(=C/C=C2/N(CCCCCC(=O)ON4C(=O)CCC4=O)c4cc5c(cc4C2(C)C)-c2c(cc(S(=O)(=O)O)cc2S(=O)(=O)O)C5(CCC(=O)NCCOCCOCCOCCOCCOCCOC)CCC(=O)NCCOCCOCCOCCOCCOCCOC)/CCC1)=[N+]3CCCCCC(=O)ON1C(=O)CCC1=O [Compound E17]
8 | 832 nm | 823 nm | CCCOCCOCCOCCOCCOCCOCCOCCOCCOCCOCCONC(=O)CCC1(CCC(=O)NOCCOCCOCCOCCOCCOCCOCCOCCOCCOCCOCCC)c2cc(S(=O)(=O)[O-])ccc2-c2cc3c(cc21)[N+](CCCCCC(=O)ON1C(=O)CCC1=O)=C(/C=C/C1=C(Oc2ccc(S(=O)(=O)O)cc2)C(=C/C=C2/N(CCCCCC(=O)ON4C(=O)CCC4=O)c4cc5c(cc4C2(C)C)-c2ccc(S(=O)(=O)O)cc2C5(CCC(=O)NCCOCCOCCOCCOCCOCCOCCOCCOCCOCCOCCOC)CCC(=O)NCCOCCOCCOCCOCCOCCOCCOCCOCCOCCOCCOC)/CCC1)C3(C)C [Compound E16]
9 | 720 nm | 686 nm | CC1(C)C(/C=C/C=C/C=C2\N(CCCCCC(=O)ON3C(=O)CCC3=O)c3cc4c(cc3C2(C)C)-c2c(cc(S(=O)(=O)O)cc2S(=O)(=O)O)C4(C)C)=[N+](CCCCCC(=O)ON2C(=O)CCC2=O)c2cc3c(cc21)-c1c(cc(S(=O)(=O)O)cc1S(=O)(=O)[O-])C3(C)C [Compound E19]
